Data as given in patent US9233096B2, “Method of providing an anti-ulcer treatment with extracts and isolated flavonoids from Euphorbia cuneata” (King Saud University, priority 2011, dated 2016).

System: ethanol-induced gastric ulceration in male Wister rats
Assay: Antiulcerogenic activity, ethanol-induced gastric ulcer model
Format: in vivo
Conditions: 100 mg/kg orally; for Antiulcerogenic activity (in words): isolated compounds compared with reference drugs at 100 mg/kg; for No. of ulcers: three doses before ethanol 50% 10 ml/kg, mean ± SD, n = 6; for Curative ratio: versus ethanol control
Description: The antiulcerogenic activity of the total alcohol extract of Euphorbia cuneata was studied using ethanol-induced ulcer model at doses of 125, 250 and 500 mg/kg. […] The antioxidant properties to the total alcohol extract and the isolated compounds were evaluated using DPPH radical scavenging activity test. The liver and kidney functions were studied.
Male Wister rats (180-200 g) were used. […] Animals were divided into groups each of 6 rats and starved for 48 h before use to ensure an empty stomach. To avoid dehydration during the period of fasting, rats were supplied with sucrose (BDH) 8% (w/v) solution in NaCl (BDH) 0.2% (w/v), which was removed one hour before experimentation. The 1st group was kept as a normal control, while the 2nd one was kept as a positive control. Groups 3rd to 5th received the alcohol extract of E. cuneata in doses of 125, 250 and 500 mg/kg orally. […] The last three groups of rats were given ranitidine, apigenin and naringin orally as reference drugs in a dose of 100 mg/kg.
Two doses were given in the first day at 08:00 and 16:00 clock; a third dose was given on the second day 1.5 h before induction of gastric ulceration. All rats except the normal control were given ethanol (Merck) 50% (v/v) (in distilled water) in a dose of 10 ml/kg orally to induce gastric ulceration. Normal control rats received equivolumes of distilled water only at the same time intervals. One hour after ethanol administration, all rats were killed by an overdose of chloroform and the stomachs were rapidly removed, opened along their greater curvature and gently rinsed under running tap water. Lesions in the glandular part of the stomach were measured under an illuminated magnifying microscope (10×). Long lesions were counted and their lengths were measured. Petechial lesions were counted, and then each five petechial lesions were taken as 1 mm of ulcer. To calculate the ulcer index (mm), the sum of the total length of long ulcers and petechial lesions in each group of rats was divided by its number. The curative ratio was determined according to the formula: […]
The results obtained were statistically analyzed using “t” test.

Row | Compound | Antiulcerogenic activity (in words) | No. of ulcers | Curative ratio
1 | Aromadendrin (2,3-dihydro-kaempferol) | as effective as naringin, apigenin and ranitidine | 3.558 ± 0.640 | 79.10
2 | CNC(=C[N+](=O)[O-])NCCSCc1ccc(CN(C)C)o1 [Rantidine] | – | 3.200 ± 0.800 | 81.20
3 | COc1ccc(-c2cc(=O)c3c(O)cc(O[C@@H]4O[C@H](CO[C@@H]5O[C@@H](C)[C@H](O)[C@@H](O)[C@H]5O)[C@@H](O)[C@H](O)[C@H]4O)cc3o2)cc1O [4′-O-methoxy-luteolin-7-O-rhamnoglucoside] | most effective | 2.003 ± 0.072 | 88.23
4 | O=c1cc(-c2ccc(O)cc2)oc2cc(O)cc(O)c12 [Apigenin] | – | 4.122 ± 0.432 | 75.78
5 | C[C@@H]1O[C@@H](O[C@H]2[C@H](Oc3cc(O)c4c(c3)O[C@H](c3ccc(O)cc3)CC4=O)O[C@H](CO)[C@@H](O)[C@@H]2O)[C@H](O)[C@H](O)[C@H]1O [Naringin] | – | 3.167 ± 0.872 | 81.40
